Measurements published in PMC10327353 (Breast Cancer Research : BCR, 2023).

Assay: Phase 1 study: safety and tolerability
Assay type: in vivo
Experimental: The maximum tolerated dose (MTD) of DZD1516 was defined based on safety data and the Bayesian optimal interval (BOIN) design (Additional file 1). The definition of DLT is provided in Additional file 1.
The AE grading was assessed according to the NCI-Common Terminology Criteria for Adverse Events (CTCAE) (version 5.0) and was monitored until 28 days after the last dose.
Eligible patients received single oral dosing of DZD1516 on Cycle 0 Day 1 (C0D1), followed by a 7-day washout. Twice daily oral dosing (bid) of DZD1516 was commenced from C1D1 in a continuous 21-day cycle until disease progression, unacceptable toxicity, or withdrawal of consent. All doses were taken under fed conditions (within 30 minutes after a meal).
Planned dosing consisted of 25, 50, 100, 200, 300, and 400 mg. Each dose escalation cohort will comprise a minimum of three and a maximum of six evaluable patients (except only one patient in the starting dose cohort). The maximum tolerated dose of DZD1516 was defined according to safety data and the Bayesian optimal interval (BOIN) design. Dose escalation/de-escalation rule with target toxicity rate for the MTD is 0.30 with interval of (0.20, 0.33).
DLTs were any adverse event (AE) not clearly attributable to the patient’s disease, including ≥ grade 4 hematological toxicities present for ≥ 4 days, grade 3 thrombocytopenia with bleeding, or grade 4 thrombocytopenia lasting for > 5 days, ≥ grade 3 non-hematological toxicities that is dose-limiting in the judgment of the investigators. Any other toxicity that is greater than that at baseline, is clinically significant or unacceptable, and is judged to be a DLT by the SRC. Exceptions included alopecia of any grade and isolated grade 3 laboratory change without clinical sequelae or clinical significance.
Safety evaluations were conducted at screening, on Day 1, 8, and 15 of Cycle 1, on Day 1 of each subsequent treatment cycle, at the end-of-treatment visit, and clinically indicated. Safety assessments included clinical laboratory measurements (hematology, chemistry, coagulation, and urinalysis), electrocardiogram (ECG), Echocardiogram/MUGA scan, ECOG performance status, vital signs, and physical examinations.

COc1cc(O[C@H]2CCN(C)CC2(F)F)c2c(Nc3ccc(Oc4ccn5ncnc5c4)c(C)c3)ncnc2c1 [DZD1516]
Alanine aminotransferase increased, Any Grade (25 mg (N = 1)): 0 (0.0) n (%)
Alanine aminotransferase increased, ≥ Grade 3 (25 mg (N = 1)): 0 (0.0) n (%)
Anemia, Any Grade (25 mg (N = 1)): 0 (0.0) n (%)
Anemia, ≥ Grade 3 (25 mg (N = 1)): 0 (0.0) n (%)
Any TEAE: Grade 3 (25 mg (N = 1)): 0 (0.0) n (%)
Any TEAE: Leading to death (25 mg (N = 1)): 0 (0.0) n (%)
Any TEAE: Leading to dose reduction (25 mg (N = 1)): 0 (0.0) n (%)
Any TEAE: Leading to treatment discontinuation (25 mg (N = 1)): 0 (0.0) n (%)
Any TEAE: Leading to treatment interruption (25 mg (N = 1)): 0 (0.0) n (%)
Any TEAE: SAE (25 mg (N = 1)): 0 (0.0) n (%)
Aspartate aminotransferase increased, Any Grade (25 mg (N = 1)): 0 (0.0) n (%)
Aspartate aminotransferase increased, ≥ Grade 3 (25 mg (N = 1)): 0 (0.0) n (%)
Blood and lymphatic system disorders, Any Grade (25 mg (N = 1)): 0 (0.0) n (%)
Blood and lymphatic system disorders, ≥ Grade 3 (25 mg (N = 1)): 0 (0.0) n (%)
Blood bilirubin increased, Any Grade (25 mg (N = 1)): 1 (100.0) n (%)
Blood bilirubin increased, ≥ Grade 3 (25 mg (N = 1)): 0 (0.0) n (%)
Cardiac disorders, Any Grade (25 mg (N = 1)): 0 (0.0) n (%)
Cardiac disorders, ≥ Grade 3 (25 mg (N = 1)): 0 (0.0) n (%)
Constipation, Any Grade (25 mg (N = 1)): 0 (0.0) n (%)
Constipation, ≥ Grade 3 (25 mg (N = 1)): 0 (0.0) n (%)
Decreased appetite, Any Grade (25 mg (N = 1)): 0 (0.0) n (%)
Decreased appetite, ≥ Grade 3 (25 mg (N = 1)): 0 (0.0) n (%)
Dizziness, Any Grade (25 mg (N = 1)): 0 (0.0) n (%)
Dizziness, ≥ Grade 3 (25 mg (N = 1)): 0 (0.0) n (%)
Drug-related TEAE: Grade 3 (25 mg (N = 1)): 0 (0.0) n (%)
Drug-related TEAE: Leading to death (25 mg (N = 1)): 0 (0.0) n (%)
Drug-related TEAE: Leading to dose reduction (25 mg (N = 1)): 0 (0.0) n (%)
Drug-related TEAE: Leading to treatment discontinuation (25 mg (N = 1)): 0 (0.0) n (%)
Drug-related TEAE: Leading to treatment interruption (25 mg (N = 1)): 0 (0.0) n (%)
Drug-related TEAE: SAE (25 mg (N = 1)): 0 (0.0) n (%)
Fatigue, Any Grade (25 mg (N = 1)): 0 (0.0) n (%)
Fatigue, ≥ Grade 3 (25 mg (N = 1)): 0 (0.0) n (%)
Gastrointestinal disorders, Any Grade (25 mg (N = 1)): 0 (0.0) n (%)
Gastrointestinal disorders, ≥ Grade 3 (25 mg (N = 1)): 0 (0.0) n (%)
General disorders and administration site conditions, Any Grade (25 mg (N = 1)): 0 (0.0) n (%)
General disorders and administration site conditions, ≥ Grade 3 (25 mg (N = 1)): 0 (0.0) n (%)
Headache, Any Grade (25 mg (N = 1)): 0 (0.0) n (%)
Headache, ≥ Grade 3 (25 mg (N = 1)): 0 (0.0) n (%)
Hemoglobin decreased, Any Grade (25 mg (N = 1)): 0 (0.0) n (%)
Hemoglobin decreased, ≥ Grade 3 (25 mg (N = 1)): 0 (0.0) n (%)
Investigations, Any Grade (25 mg (N = 1)): 1 (100.0) n (%)
Investigations, ≥ Grade 3 (25 mg (N = 1)): 0 (0.0) n (%)
Lipase increased, Any Grade (25 mg (N = 1)): 0 (0.0) n (%)
Lipase increased, ≥ Grade 3 (25 mg (N = 1)): 0 (0.0) n (%)
Malaise, Any Grade (25 mg (N = 1)): 0 (0.0) n (%)
Malaise, ≥ Grade 3 (25 mg (N = 1)): 0 (0.0) n (%)
Metabolism and nutrition disorders, Any Grade (25 mg (N = 1)): 0 (0.0) n (%)
Metabolism and nutrition disorders, ≥ Grade 3 (25 mg (N = 1)): 0 (0.0) n (%)
Musculoskeletal and connective tissue disorders, Any Grade (25 mg (N = 1)): 0 (0.0) n (%)
Musculoskeletal and connective tissue disorders, ≥ Grade 3 (25 mg (N = 1)): 0 (0.0) n (%)
Nausea, Any Grade (25 mg (N = 1)): 0 (0.0) n (%)
Nausea, ≥ Grade 3 (25 mg (N = 1)): 0 (0.0) n (%)
Nervous system disorders, Any Grade (25 mg (N = 1)): 0 (0.0) n (%)
Nervous system disorders, ≥ Grade 3 (25 mg (N = 1)): 0 (0.0) n (%)
Participants with any TEAE, Any Grade (25 mg (N = 1)): 1 (100.0) n (%)
Participants with any TEAE, ≥ Grade 3 (25 mg (N = 1)): 0 (0.0) n (%)
Platelet count decreased, Any Grade (25 mg (N = 1)): 0 (0.0) n (%)
Platelet count decreased, ≥ Grade 3 (25 mg (N = 1)): 0 (0.0) n (%)
Proteinuria, Any Grade (25 mg (N = 1)): 0 (0.0) n (%)
Proteinuria, ≥ Grade 3 (25 mg (N = 1)): 0 (0.0) n (%)
Renal and urinary disorders, Any Grade (25 mg (N = 1)): 0 (0.0) n (%)
Renal and urinary disorders, ≥ Grade 3 (25 mg (N = 1)): 0 (0.0) n (%)
Subjects with any TEAE (25 mg (N = 1)): 1 (100.0) n (%)
Subjects with any drug-related TEAE (25 mg (N = 1)): 1 (100.0) n (%)
Vomiting, Any Grade (25 mg (N = 1)): 0 (0.0) n (%)
Vomiting, ≥ Grade 3 (25 mg (N = 1)): 0 (0.0) n (%)
White blood cell count decreased, Any Grade (25 mg (N = 1)): 0 (0.0) n (%)
White blood cell count decreased, ≥ Grade 3 (25 mg (N = 1)): 0 (0.0) n (%)
Alanine aminotransferase increased, Any Grade (50 mg (N = 4)): 1 (25.0) n (%)
Alanine aminotransferase increased, ≥ Grade 3 (50 mg (N = 4)): 0 (0.0) n (%)
Anemia, Any Grade (50 mg (N = 4)): 0 (0.0) n (%)
Anemia, ≥ Grade 3 (50 mg (N = 4)): 0 (0.0) n (%)
Any TEAE: Grade 3 (50 mg (N = 4)): 0 (0.0) n (%)
Any TEAE: Leading to death (50 mg (N = 4)): 0 (0.0) n (%)
Any TEAE: Leading to dose reduction (50 mg (N = 4)): 0 (0.0) n (%)
Any TEAE: Leading to treatment discontinuation (50 mg (N = 4)): 0 (0.0) n (%)
Any TEAE: Leading to treatment interruption (50 mg (N = 4)): 0 (0.0) n (%)
Any TEAE: SAE (50 mg (N = 4)): 0 (0.0) n (%)
Aspartate aminotransferase increased, Any Grade (50 mg (N = 4)): 1 (25.0) n (%)
Aspartate aminotransferase increased, ≥ Grade 3 (50 mg (N = 4)): 0 (0.0) n (%)
Blood and lymphatic system disorders, Any Grade (50 mg (N = 4)): 0 (0.0) n (%)
Blood and lymphatic system disorders, ≥ Grade 3 (50 mg (N = 4)): 0 (0.0) n (%)
Blood bilirubin increased, Any Grade (50 mg (N = 4)): 0 (0.0) n (%)
Blood bilirubin increased, ≥ Grade 3 (50 mg (N = 4)): 0 (0.0) n (%)
Cardiac disorders, Any Grade (50 mg (N = 4)): 0 (0.0) n (%)
Cardiac disorders, ≥ Grade 3 (50 mg (N = 4)): 0 (0.0) n (%)
Constipation, Any Grade (50 mg (N = 4)): 0 (0.0) n (%)
Constipation, ≥ Grade 3 (50 mg (N = 4)): 0 (0.0) n (%)
Decreased appetite, Any Grade (50 mg (N = 4)): 0 (0.0) n (%)
Decreased appetite, ≥ Grade 3 (50 mg (N = 4)): 0 (0.0) n (%)
Dizziness, Any Grade (50 mg (N = 4)): 0 (0.0) n (%)
Dizziness, ≥ Grade 3 (50 mg (N = 4)): 0 (0.0) n (%)
Drug-related TEAE: Grade 3 (50 mg (N = 4)): 0 (0.0) n (%)
Drug-related TEAE: Leading to death (50 mg (N = 4)): 0 (0.0) n (%)
Drug-related TEAE: Leading to dose reduction (50 mg (N = 4)): 0 (0.0) n (%)
Drug-related TEAE: Leading to treatment discontinuation (50 mg (N = 4)): 0 (0.0) n (%)
Drug-related TEAE: Leading to treatment interruption (50 mg (N = 4)): 0 (0.0) n (%)
Drug-related TEAE: SAE (50 mg (N = 4)): 0 (0.0) n (%)
Fatigue, Any Grade (50 mg (N = 4)): 0 (0.0) n (%)
Fatigue, ≥ Grade 3 (50 mg (N = 4)): 0 (0.0) n (%)
Gastrointestinal disorders, Any Grade (50 mg (N = 4)): 0 (0.0) n (%)
Gastrointestinal disorders, ≥ Grade 3 (50 mg (N = 4)): 0 (0.0) n (%)
General disorders and administration site conditions, Any Grade (50 mg (N = 4)): 0 (0.0) n (%)
General disorders and administration site conditions, ≥ Grade 3 (50 mg (N = 4)): 0 (0.0) n (%)
Headache, Any Grade (50 mg (N = 4)): 1 (25.0) n (%)
Headache, ≥ Grade 3 (50 mg (N = 4)): 0 (0.0) n (%)
Hemoglobin decreased, Any Grade (50 mg (N = 4)): 2 (50.0) n (%)
Hemoglobin decreased, ≥ Grade 3 (50 mg (N = 4)): 0 (0.0) n (%)
Investigations, Any Grade (50 mg (N = 4)): 3 (75.0) n (%)
Investigations, ≥ Grade 3 (50 mg (N = 4)): 0 (0.0) n (%)
Lipase increased, Any Grade (50 mg (N = 4)): 2 (50.0) n (%)
Lipase increased, ≥ Grade 3 (50 mg (N = 4)): 0 (0.0) n (%)
Malaise, Any Grade (50 mg (N = 4)): 0 (0.0) n (%)
Malaise, ≥ Grade 3 (50 mg (N = 4)): 0 (0.0) n (%)
Metabolism and nutrition disorders, Any Grade (50 mg (N = 4)): 1 (25.0) n (%)
Metabolism and nutrition disorders, ≥ Grade 3 (50 mg (N = 4)): 0 (0.0) n (%)
Musculoskeletal and connective tissue disorders, Any Grade (50 mg (N = 4)): 1 (25.0) n (%)
Musculoskeletal and connective tissue disorders, ≥ Grade 3 (50 mg (N = 4)): 0 (0.0) n (%)
Nausea, Any Grade (50 mg (N = 4)): 0 (0.0) n (%)
Nausea, ≥ Grade 3 (50 mg (N = 4)): 0 (0.0) n (%)
